For one molecule, IC50 results are on record in patent publication US20240294550A1, “8-OXA-3-AZABICYCLO[3.2.1]OCTANE COMPOUNDS OR SALT THEREOF, AND PREPARATION METHOD AND USE THEREOF” (LITTDD MEDICINES LTD, priority 2021, published 2024).

Each structure is given as a SMILES string.

This assay deals with LOVO cells. Description: Cell proliferation assay (CellTiter-Glo). The format is cell-based. The following applies: Homo sapiens, 96 hours. Background: In ATP-based viability assays light output follows the ATP content of the culture.

For `C[C@@H]1COCCN1c1cc(N2CC3CCC(C2)O3)nc2c(-c3cc[nH]n3)cnn12` [Example 1, 3-(7-((R)-3-methylmorpholino)-3-(1H-pyrazol-3-yl)pyrazolo[1,5-a]pyrimidin-5-yl)-8-oxa-3-azabicyclo[3.2.1]octane], the midpoint of inhibition, the IC50, lay at 304 nM.

As a reminder, the IC50 is the point on the concentration scale where inhibition reaches its midpoint. Read a low IC50 as greater potency in that assay.
